Data as given in patent US20230038480A1, “SYSTEM FOR PRODUCITON OF HIGH YIELD OF RECOMBINANT PROTEINS” (UNIVERSITY OF MARYLAND, COLLEGE PARK, priority 2021, published 2023).

Columns and labels:
E. coli pAHL-GMCSF = assay: AHL-induced porin formation and release of dsRedExpressII from E. coli pAHL-GMCSF; format: cell-based, Escherichia coli; conditions: about
Description: Protein secretion analysis. The target proteins DsRedExpress2 and GMCSF were analyzed. The supernatants of sample aliquots were recovered after centrifugation (6000 g, 2 min) to separate bacteria and subdivided fluorescence analysis (stored chilled) or immunoassaying (stored frozen). The relative fluorescence intensity of samples was measured using a BioTek Synergy platereader to determine DsRedExpress2 levels; additional quantification to correlate fluorescence to protein concentration was performed using a Bioanalyzer 2100 (Agilent Technologies, Santa Clara, Calif.). The His-tagged GMCSF peptide was quantified using a His Tag ELISA Detection Kit (GenScript) according to the provided protocol and 5-10 fold dilutions of frozen samples.

CCCCCCCCCC(=O)CC(=O)N[C@H]1CCOC1=O [AHL, N-3-oxo-dodecanoyl-L-Homoserine lactone]
inducer concentration in solution (E. coli pAHL-GMCSF): 100-500 nM of AHL

OO [peroxide, hydrogen peroxide]
induction threshold required to achieve saturated protein expression (OxyR / PoxyS promoter): 25 µM
peroxide tolerated with negligible effect on cell viability (E. coli): up to 100 μM
benign induction range (E. coli; in agreement with previous reports): 0 to 100 µM
